Assay results published in patent publication US4117108A, “Oral hygiene” (Noxell Corporation, priority 1976, dated 1978).

How the values were obtained:
[1] = tested on: pellicle and plaque growth on extracted human teeth and plastic strip; experiment: Inhibition of plaque/pellicle formation on extracted human teeth (mounted on polymethylmethacrylate strip) with composition added to the media (Example 20 procedure); design: species or system human saliva / human teeth; details: 0.1 ml of 1% by weight in propylene glycol; second 24 h
[2] = tested on: pellicle and plaque growth on extracted human teeth and plastic strip; experiment: as above; design: species or system human saliva / human teeth; details: for pellicle and plaque formation/inhibition on the teeth: 0.1 ml of 1% by weight in distilled water added to about 200 ml media, second 24 h at about 37° C
Experimental: A set of three extracted human teeth without the roots is mounted on a polymethylmethacrylate plastic strip of about 1 inch × 3 inches. A drop of human saliva is applied to each tooth and allowed to dry. The set of teeth is then placed in a petri dish and covered with about 200 ml of an aqueous solution of about 2% trypticase and about 4% sucrose. The dish is then inoculated with an additional 1 ml of human saliva and then incubated at about 37° C for about 24 hours.
Next, the set of teeth is removed from the media, rinsed, and then dipped into a 0.5% aqueous solution of FD & C RED No. 3 to visually disclose the plaque.
The teeth are then brushed with water using an electric toothbrush fitted with a soft nylon brush until all of the red disclosed plaque and/or pellicle is removed.
The teeth are then swabbed with human saliva, placed in a petri dish covered with about 200 ml of the trypticase-sucrose media and about 0.1 ml of a composition containing 1% by weight DL-N-carboxymethylmethyl-N,N-dimethyl-N-(3-palmitamidopropyl) ammonium betaine and the remainder being distilled water. The contents of the dish are then inoculated with an additional 1 ml of saliva and incubated for about 24 hours at about 37° C. At the end of the 24 hours, the set of teeth is removed from the media, dried, and dipped into a 0.5% FE & C RED No. 3 solution for about 60 seconds to visually disclose the presence of pellicle and plaque and is then rinsed under tap water.

[3] = tested on: plaque and pellicle growth on extracted human teeth; experiment: Inhibition of plaque/pellicle redeposition on extracted human teeth brushed with the composition, then incubated with saliva (Example 1A procedure)
Experimental: A set of three extracted human teeth without the roots is mounted on a plastic strip of about 1 inch × 3 inches. The teeth are then swabbed with human saliva using a sterile Dacron swab and allowed to dry for about 15 minutes. The strip is then placed in a petri dish and covered with about 200 ml of an aqueous solution of about 2% trypticase and about 4% sucrose. Each dish is then inoculated with an additional 1 ml of human saliva and then incubated at about 37° C for about 24 hours.
Next, the set of teeth is removed from the media, dried, and then dipped into a 0.5% aqueous solution of FD & C RED No. 3 to visually disclose the plaque. The strip is then rinsed under tap water.
The teeth are then brushed with an electric toothbrush […], […], until all of the red disclosed plaque is removed and are then rinsed.
The teeth are then again swabbed with human saliva, placed in a petri dish covered with the trypticase-sucrose media, which is then inoculated with an additional 1 ml of saliva and incubated for about 24 hours at about 37° C. At the end of the 24 hours, the set of teeth is removed from the media, dried, and dipped into a 0.5% FD & C RED No. 3 solution for about 60 seconds to visually disclose the presence of plaque and is then rinsed under tap water.
All of the above examples employed new sets of teeth or plastic strips and new brushes for the brushing, respectively. Any NaCl present in the composition is due to its presence in the available compositions of the fatty acid amido compounds.

[4] = tested on: plaque and/or pellicle growth on polymethyl methacrylate strips; experiment: Inhibition of plaque/pellicle growth on polymethyl methacrylate strips brushed with the composition (Example 16 procedure); design: species or system human saliva; details: second 24 h
[5] = tested on: plaque and pellicle formation; experiment: Observed plaque/pellicle retardation (general statements, test not specified at the place); details: for plaque inhibition activity: various compositions with about 5% betaine, including (isostearic) 24% glycerin, 1% propylene glycol, 0.75% carboxymethyl cellulose, 69.25% water
[6] = Acute oral LD50 study; details: in vivo, rat, palmitic amido betaine purified according to Example 10
Experimental: An acute oral LD50 study was done on rats for Schercotaine PAB in mature albino rats.
Palmitic amido betaine purified according to Example 10 is also tested according to the above procedure.

Compound: CCCCCCCCCCCCCCCC(=O)NCCC[N+](C)(C)CCS(=O)(=O)[O-] [2-[N,N-dimethyl-N-(3-palmitamidopropyl)-amino] ethanesulfobetaine]
- activity against plaque and pellicle formation on the teeth [1]: exhibits activity against plaque and pellicle formation on the teeth
- plaque growth on teeth and plastic [1]: Only slight plaque growth is observed on the teeth and plastic

Compound: CCCCCCCC/C=C\CCCCCCCC(=O)NCCC[N+](C)(C)C(C)C(=O)[O-] (racemic) [DL-N-carboxymethylmethyl-N,N-dimethyl-N-(3-oleylamidopropyl) ammonium betaine]
- pellicle and plaque formation/inhibition on the teeth [2]: inhibits plaque and pellicle formation on the teeth

Compound: CCCCCCCCCCCCCCCCCC(=O)NCCC[N+](C)(C)CCC(=O)[O-] [N-carboxyethyl-N,N-dimethyl-N-(3-stearamidopropyl) ammonium betaine]
- pellicle and plaque formation/inhibition on the teeth [2]: inhibits plaque and pellicle formation on the teeth

Compound: isostearic amido betaine
- plaque and pellicle inhibition ([3]; Example 3: about 35% betaine, 2-5% NaCl, remainder water (Schercotaine IAB), second 24 h): good plaque and pellicle inhibition
- pellicle and plaque inhibition ([3]; Example 6: about 5% betaine, 24% glycerin, 0.75% hydroxyethyl cellulose, 1% propylene glycol, up to 5% NaCl, water, second 24 h): moderate pellicle and plaque inhibition
- plaque and pellicle on the teeth ([3]; Example 15: about 14% betaine, 86% water, second 24 h): no plaque and pellicle are present on the teeth
- prevention of plaque and/or pellicle growth ([4]; Example 17C: Denta Fresh ingredients with Tegobetaine C replaced by 15% isostearic amido betaine): does not prevent plaque and/or pellicle growth
- plaque inhibition ([5]; about 5% betaine, similar composition with about 0.75% hydroxyethyl cellulose in place of carboxymethyl cellulose): retarded plaque formation and exhibited moderate plaque inhibition
- plaque inhibition activity [5]: did not exhibit plaque inhibition activity

Compound: CCCCCCCCCCCCCCCCCC(=O)NCCC[N+](C)(C)CC(=O)[O-] [stearic amido betaine]
- plaque inhibition activity [5]: did not exhibit plaque inhibition activity

Compound: CCCCCCCCCCCCCCCC(=O)NCCC[N+](C)(C)CC(=O)[O-] [palmitic amido betaine]
- plaque growth on teeth / inhibition of plaque redeposition ([3]; Example 1A: about 25% palmitic amido betaine, 2-5% NaCl, remainder water (Schercotaine PAB), brushed and rinsed, second 24 h at 37° C): effectively inhibits the redeposition of dental plaque on the teeth
- pellicle and plaque inhibition ([3]; Example 2: about 20% betaine, 10% ethyl alcohol, 70% water, second 24 h): provides pellicle and plaque inhibition although not as great as the preparation employed in Example 1A
- prevention of pellicle and plaque formation ([3]; Example 4: about 10% betaine, 8% silica gel (Syloid 244), 36.4% sorbitol, up to 5% NaCl, water, second 24 h): complete prevention of pellicle and plaque formation on the teeth
- pellicle or plaque formation ([3]; Example 5: about 2.5% betaine, 10% ethyl alcohol, up to 5% NaCl, water, brushed and dipped, not rinsed, second 24 h): no pellicle or plaque formation on the set of teeth
- pellicle and plaque inhibition ([3]; Example 8: about 10 parts betaine, 35.7 sorbitol, 8 silica QUSO G-30, 1 propylene glycol, 45 water, second 24 h): complete pellicle and plaque inhibition on the teeth
- inhibition of pellicle and plaque growth ([3]; Example 9: about 10 parts betaine, 35.7 sorbitol, 8 silica QUSO G-32, 1 propylene glycol, 45 water, second 24 h): complete inhibition of pellicle and plaque growth
- inhibition of plaque and pellicle growth ([3]; Example 10: about 10% purified betaine, 90% water, 24 h): complete inhibition of plaque and pellicle growth on the teeth
- inhibition of plaque and pellicle growth ([3]; Example 11: about 5% purified betaine, 95% water, 24 h): partial inhibition of plaque and pellicle growth on the teeth
- inhibition of pellicle and plaque growth ([3]; Example 12: about 30 parts betaine in paste with sorbitol, glycerin, carboxymethyl cellulose, Syloid 244, hydrated alumina, pH about 6.4, second 24 h): complete inhibition of pellicle and plaque growth on the teeth
- plaque and pellicle inhibition ([3]; Example 13: about 25 parts purified betaine in paste with sorbitol, carboxymethyl cellulose, hydrated alumina, Syloid 244, glycerin, second 24 h): complete plaque and pellicle inhibition on the teeth
- inhibition of plaque and pellicle growth ([3]; Example 14: about 30 parts purified betaine in paste with Pluronic F-68, sorbitol, carboxymethyl cellulose, hydrated alumina, Syloid 244, second 24 h): complete inhibition of plaque and pellicle growth on the teeth
- prevention of plaque and/or pellicle growth ([4]; Example 17B: Denta Fresh ingredients with Tegobetaine C replaced by 15% palmitic amido betaine): does not prevent plaque and/or pellicle growth
- LD50 [6]: 2400 mg/kg
- retardation of plaque formation ([5]; about 2.5% betaine, about 10% silica, about 56% sorbitol, up to 5% NaCl, water, with rinsing): did not retard plaque formation
- retardation of plaque formation ([5]; about 2.5% or less betaine, about 10% ethyl alcohol, up to about 5% NaCl, water, with rinsing): did not retard plaque formation
- retardation of plaque formation ([5]; about 5% betaine, about 8% silica, about 50.5% sorbitol, about 36.5% water): marginally effective in that sometimes the composition exhibited retardation of plaque while other times the composition did not
- retardation of plaque formation ([5]; about 5% betaine, about 95% water): retarded plaque formation
- prevention of plaque formation ([5]; same compositions (2.5% or less with ethyl alcohol; 2.5% with silica/sorbitol), no rinsing after treatment): prevented the formation of plaque

Compound: CCCCCCCCCCCCCCCCCC(=O)NCCC[N+](C)(C)C(C)C(=O)[O-] (racemic) [DL-N-carboxymethylmethyl-N,N-dimethyl-N-(3-stearamidopropyl) ammonium betaine]
- pellicle and plaque formation/inhibition on the teeth [2]: slight activity against plaque and pellicle formation on the teeth

Compound: CCCCCCCC/C=C\CCCCCCCC(=O)NCCC[N+](C)(C)CCC(=O)[O-] [N-carboxyethyl-N,N-dimethyl-N-(3-oleylamidopropyl) ammonium betaine]
- pellicle and plaque formation/inhibition on the teeth [2]: inhibits plaque and pellicle formation on the teeth

Compound: CCCCCCCCCCCCCCCC(=O)NCCC[N+](C)(C)C(C)C(=O)[O-] (racemic) [DL-N-carboxymethylmethyl-N,N-dimethyl-N-(3-palmitamidopropyl) ammonium betaine]
- pellicle and plaque formation/inhibition on the teeth [2]: No pellicle and plaque growth are observed on the teeth

Compound: CCCCCCCC/C=C\CCCCCCCC(=O)NCCC[N+](C)(C)CC(=O)[O-] [oleic amido betaine]
- inhibition of pellicle and plaque growth ([3]; Example 7: about 25% betaine, up to 5% NaCl, water (Schercotaine OAB), second 24 h): almost complete inhibition of pellicle and plaque growth on the teeth

Compound: CCCCCCCCCCCCCCCC(=O)NCCC[N+](C)(C)CCC(=O)[O-] [N-carboxyethyl-N,N-dimethyl-N-(3-palmitamidopropyl) ammonium betaine]
- pellicle and plaque formation/inhibition on the teeth [2]: complete inhibition of plaque and pellicle formation on the teeth
- plaque and/or pellicle on the plastic strip ([2]; 0.1 ml of 1% by weight in distilled water, second 24 h): very slight plaque and/or pellicle on the plastic strip

Compound: CCCCCCCC/C=C\CCCCCCCC(=O)NCCC[N+](C)(C)CCS(=O)(=O)[O-] [2-[N,N-dimethyl-N-(3-oleylamidopropyl)-amino] ethanesulfobetaine]
- activity against plaque and pellicle formation on the teeth [1]: exhibits activity against plaque and pellicle formation on the teeth
- plaque growth on teeth and plastic [1]: Very slight plaque growth is observed on teeth and plastic
